Common to all, as to assay: inhibition of tumour cell growth, NCI panel, 48 h
Assay [1] deals with 786-0.
The test system of assay [2] is COLO 205.
In assay [3] the test system is HCC 2998.
In assay [4] the test system is HL-60.
The subject of assay [5] is HOP-92.
Assay [6] concerns K562.
The test system of assay [7] is M19-MEL.
The test system of assay [8] is NCI-H522.
Assay [9] concerns OVCAR-4.
In assay [10] the test system is OVCAR-8.
Assay [11] deals with RPMI-8226.
Assay [12] concerns SF-268.
The test system of assay [13] is SK-OV-3.
Assay [14] concerns TK-10.
The test system of assay [15] is UACC-257.
The subject of assay [16] is UACC-62.
Assay [17] has as its system BT-549.
For assay [18], the system named is DU-145.
The subject of assay [19] is Hs-578T.
Assay [20] has as its system MDA-N.

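Values below derive from 48-hour exposures of cells grown in 96-well plates, with endpoints linearly interpolated between the two concentrations bracketing the appropriate inhibition level. GI50: concentration for 50% inhibition of growth.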 The source made the active and inactive calls. No stated cut-off is given here; in the data, active = GI50 up to about 1.1 µM and inactive = higher.

For the compound `Oc1ccc(Br)cc1/C=N/c1ccc(Oc2ccc(/N=C/c3cc(Br)ccc3O)cc2)cc1`, the GI50 in assay [1], in [2], in assay [3], in [4], in [5] and in assay [6] was > 19.6 µM (inactive) each time. Further, the GI50 in assay [7], in assay [8], in assay [9], in [10], in [11] and in [12] was > 19.6 µM (inactive) in each case. The GI50 in [13], in assay [14], in assay [15] and in assay [16] was > 19.6 µM (inactive) in each case.

With `CC1=C(C(=O)CC(=O)C(=O)Nc2ccccc2C)Sc2ccccc2N1`, the GI50 is > 45.5 µM (inactive) in assay [1]; > 42.7 µM (inactive) in assay [2]; > 74.3 µM (inactive) in assay [3]; > 60.5 µM (inactive) in [4]; > 67.9 µM (inactive) in assay [5]; > 56.9 µM (inactive) in [6]. The GI50 was > 100 µM (inactive) in [7]; > 55 µM (inactive) in [8]; > 100 µM (inactive) in [9]; > 100 µM (inactive) in assay [10]; > 45 µM (inactive) in assay [11]; > 67 µM (inactive) in assay [12]. Further, the GI50 in assay [13], in [14], in assay [15] and in [16] was > 100 µM (inactive) in each case.

Turning to `O=[N+]([O-])c1ccc2nc(/C(=N/Nc3ccccc3)C(O)c3ccc(C(O)/C(=N\Nc4ccccc4)c4nc5ccc([N+](=O)[O-])cc5nc4O)cc3)cnc2c1` (stereo not given), the GI50 in assay [1] was > 100 µM (inactive); in assay [2] it was > 100 µM (inactive); in assay [3], 29.1 µM (inactive); in [4], 19.3 µM (inactive); in [5] it was > 100 µM (inactive); in assay [6], 13.6 µM (inactive). Besides, the GI50 is 58.9 µM (inactive) in assay [7]; 5.64 µM (inactive) in assay [8]; > 100 µM (inactive) in [9]; > 100 µM (inactive) in assay [10]; 19.4 µM (inactive) in assay [11]; > 100 µM (inactive) in [12]. Further, the GI50 was > 100 µM (inactive) in [13], > 100 µM (inactive) in assay [14], > 100 µM (inactive) in [15] and 36 µM (inactive) in assay [16].

On to `CC(C)(CN1CCCCC1)C(=O)/C=C/c1ccc(/C=C/C(=O)C(C)(C)CN2CCCCC2)cc1`, for which the GI50 is 0.446 µM (active) in [1]; 1.7 µM (inactive) in assay [17]; 0.152 µM (active) in assay [2]; 1.94 µM (inactive) in [18]; 0.35 µM (active) in [3]; 0.116 µM (active) in assay [4]. Moreover, the GI50 was 0.333 µM (active) in [5]; 0.42 µM (active) in [19]; 0.103 µM (active) in [6]; 0.982 µM (active) in assay [7]; 0.177 µM (active) in [20]; 0.0454 µM (active) in assay [8]. For the same compound, the GI50 in assay [9] is 0.368 µM (active); in assay [10], 1.02 µM (active); in assay [11], 0.193 µM (active); in assay [12] it was 0.413 µM (active); in assay [13] it was 1.57 µM (inactive); in assay [14] it was 1.05 µM (active). The values for the GI50 in assay [15] and in [16] were 1.05 µM (active) and 1.02 µM (active), respectively.

For the compound `O=C(c1ccccc1)C1(Br)S(=O)(=O)OCCOS1(=O)=O`, the GI50 in assay [1], in [2], in [3], in assay [4], in assay [5] and in assay [6] was > 100 µM (inactive) throughout. For the same compound, the GI50 in assay [7], in assay [8], in assay [9], in [10], in assay [11] and in assay [12] was > 100 µM (inactive) in each case. The GI50 in [13], in assay [14], in [15] and in assay [16] was > 100 µM (inactive) in each case.

`NC1=NN(c2ccccc2)C(=O)C1/C(=N\NC(=O)c1cc2ccccc2cc1O)C(=O)Nc1ccc(Cl)cc1` (stereo not given): the GI50 in assay [1] is 20.2 µM (inactive); in [2], 23.1 µM (inactive); in assay [3], 28.9 µM (inactive); in [4] it was 3.57 µM (inactive); in assay [5], 23.1 µM (inactive); in assay [6], 10.1 µM (inactive). In addition, the GI50 in assay [7] is 26.4 µM (inactive); in assay [8], 20.4 µM (inactive); in assay [9] it was 18.5 µM (inactive); in [10], 20.8 µM (inactive); in [11], 22.6 µM (inactive); in [12] it was 12.7 µM (inactive). For the same compound, the GI50 is 51.5 µM (inactive) in assay [13], 37.1 µM (inactive) in assay [14], 28.6 µM (inactive) in assay [15] and 19 µM (inactive) in assay [16].

`CN(C)c1n/c(=N/Cc2ccco2)ss1`: the GI50 in assay [1] was 3.65 µM (inactive); in assay [17], 18.6 µM (inactive); in assay [2] it was 2.06 µM (inactive); in [18], > 66.5 µM (inactive); in assay [3], 52.8 µM (inactive); in assay [4], 1.59 µM (inactive). In addition, the GI50 in assay [19] is 29.6 µM (inactive); in assay [6], 3.77 µM (inactive); in [7], 5.05 µM (inactive); in assay [20] it was 16.6 µM (inactive); in assay [8], 0.307 µM (active); in assay [9] it was 30.3 µM (inactive). Also, the GI50 in assay [10] is 31.7 µM (inactive); in [11] it was 1.79 µM (inactive); in [12] it was 11.7 µM (inactive); in assay [13], 55.6 µM (inactive); in [14], 40 µM (inactive); in [15], 46.5 µM (inactive). Moreover, in assay [16], the GI50 was 5.32 µM (inactive).

For `COc1cc(/C=C/c2ccc(OC)c(O)c2)cc(OC)c1`, the GI50 in assay [1] was 15.7 µM (inactive); in assay [2], 26.5 µM (inactive); in assay [3], 20.3 µM (inactive); in assay [4] it was 1.75 µM (inactive); in assay [5], 7.71 µM (inactive); in assay [6] it was 2.43 µM (inactive). Further, the GI50 in assay [7] is 6.41 µM (inactive); in assay [8], 1.69 µM (inactive); in assay [9], 14.3 µM (inactive); in assay [10] it was 5.92 µM (inactive); in assay [11], 2.19 µM (inactive); in assay [12] it was 8.55 µM (inactive). For the same compound, the GI50 was 36.1 µM (inactive) in assay [13], 37.3 µM (inactive) in [14], 5.86 µM (inactive) in [15] and 3.15 µM (inactive) in assay [16].

Values taken from ChEMBL document CHEMBL1201862, “PubChem BioAssay data set” (2004).
